The series in a line: Phase (ii) testing: UV irradiation of drug with photoinitiator (radical generation), drug recovery by HPLC. Format: physicochemical. The settings on record: sensitive = degrades more than 5% with radical generation at 12 J/cm^2. The text has this:
As used herein, the term sensitive pharmaceutical compounds is to be interpreted as compounds that degrade for more than 5% in an environment with radical generation at 12 J/cm^2 irradiation. More in particular, the pharmaceutical can be sensitive during polymerisation that can be initiated with UV or visible light (200-700 nm) or with electron beam or gamma radiation, and without or up to 10% radical generating species (initiator) present. If an initiator is present, it is preferably about 1-10 wt % of a photoinitiator. In addition to photoinitiators, the system may comprise also a thermal initiator (for example peroxide and/or redox initiators). Preferably a radiation sensitive (photo)initiator is used, for example a Norrish Type I or Type II initiator. It is possible to work in the absence of these radical generating species where electron beam or gamma radiation is used or in the case where unsaturated compounds (one compound whose double bond is electron rich and another compound whose double bond is electron poor) react with each other via a donor-acceptor complex to form a polymer.
Potential degradation can be measured by dissolving 100 ppm (0.1 g/l) pharmaceutical compound in a suitable solvent in a quartz, glass or HPLC vessel. One series of vessels is used as such. In a second series of vessels, the one or more initiators, preferably those used in the polymerization mixture, are added in the same amount as the pharmaceutical compound. Next, the vessels are subjected to irradiation at 2 and 12 J/cm^2. As an example, UV radiation can be performed with a lab UV source Bluepoint 2, equipped with a D-bulb D65 and directed onto the sample by a UV light guide. The output from the guide is 200 mW/cm^2 (200 mJ/cm^2 per second) as measured with a Solascope 1 UV spectrometer. A dose of 2 and 12 J/cm^2 was achieved by irradiating 10 and 60 seconds, respectively. The choice of irradiation system could be governed by the applications or processing considerations that typically influence hardware use in a laboratory, hospital or manufacturing environment. […]
The recovery could be analysed by HPLC. […] UV spectra of the drugs before and after UV irradiation (at both 2 and 12 J/cm^2) had identical shapes, meaning that the HPLC method could be used to quantitatively measure changes in drug concentrations. Any degradation would be calculated as: minus the percentage of recovered API.
UV irradiation of drug-containing solutions (see below) was performed with a lab UV source Dr. Hoenle Bluepoint 2, equipped with a D-bulb, directed onto the (open) HPLC vials (2 ml) by a UV light guide (200 mW/cm^2; 200 mJ/cm^2 per second as measured with Solascope 1 UV emission spectrometer). […]

With `COc1cc2nc(N3CCN(C(=O)c4ccco4)CC3)nc(N)c2cc1OC` [Prazosin ®, Prazosin], the “radical sensitivity in the current testing method” value was “radical sensitive”.

Consider `O=C(N[C@H](CO)[C@H](O)c1ccc([N+](=O)[O-])cc1)C(Cl)Cl` [Chloroamphenicol], for which the “radical sensitivity in the current testing method” value is reported as “radical sensitive”. The entry for `COc1cc2nc(N3CCN(C(=O)C4CCCO4)CC3)nc(N)c2cc1OC` (stereo not shown) [Terazosin ®, Terazosin] is “radical sensitive”; for `CCCCc1oc2ccccc2c1C(=O)c1cc(I)c(OCCN(CC)CC)c(I)c1` [Amiodarone ®, Amiodarone] it is “radical sensitive”.

Source of the values: US20100068252A1, “METHOD FOR PREPARING POLYMERIC MATRICES BY RADIATION IN THE PRESENCE OF SENSITIVE PHARMACEUTICAL COMPOUNDS” (DSM IP ASSETS B.V., priority 2006, published 2010).
